# Results as given in patent US9980973B2, “Bicyclic heterocycle compounds and their uses in therapy” (ASTEX THERAPEUTICS LIMITED, priority 2012, dated 2018).
# Structures can show the parent of a compound that is named as a salt. Where two headings read alike, the source gives them in different places.
# Tests used:
# [1] = target: T1, BIR3 domain of human XIAP (Homo sapiens, UniProt P98170); test: XIAP in vitro competitive displacement binding assay (fluorescence polarization); conditions: for IC50: plain number = IC50, average where more than one data point, read-out: Xiap IC50 or PI μM (IC50); for inhibition at 0.04 µM: 1 h, PI at 0.04 μM, read-out: Xiap IC50 or PI μM (PI)
# T1 construct: BIR3 domain of human XIAP (residues 252-350) fused to a His-tag; His-tag (cleaved yes); made in house; host or cells: Escherichia coli
# T1 sequence (P98170 252-350): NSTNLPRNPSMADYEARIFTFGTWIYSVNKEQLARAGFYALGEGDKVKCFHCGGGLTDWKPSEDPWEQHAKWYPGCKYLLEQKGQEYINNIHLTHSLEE
# [2] = system: EVSA-T (human breast carcinoma); test: Anti-proliferative activity, Alamar Blue assay, EVSA-T; format: cell-based
# [3] = Homo sapiens, EVSA-T, 72 h, EVSA-T cells, 72 hours, Alamar Blue, read-out: EVSA-T prolif
# [4] = Homo sapiens, EVSA-T, read-out: EC50 in EVSA-T cell line assays
# [5] = EVSA-T cells, 72 hours, Alamar Blue, dihydrochloride, read-out: EVSA-T prolif
Structure (SMILES),IC50 [1],"EC50 [2, 3]","EC50 [2, 4]",inhibition at 0.04 µM [1],"EC50 [2, 5]"
"C[C@@H]1CN(CC(=O)N2CC(C)(C)c3ncc(Cc4ccc(F)cc4)cc32)[C@@H](CN2C[C@@H]3C[C@H]2CO3)CN1 [Example 7, 1-{6-[(4-Fluorophenyl)methyl]-3,3-dimethyl-1H,2H,3H-pyrrolo[3,2-b]pyridin-1-yl}-2-[(2R,5R)-5-methyl-2-[(1S,4S)-2-oxa-5-azabicyclo[2.2.1]heptan-5-ylmethyl]piperazin-1-yl]ethan-1-one dihydrochloride]",0.16 µM,6.2 nM,< 1000 nM,,
"C[C@@H]1CN(CC(=O)N2CC(C)(C)c3ncc(C(O)c4cccc(F)c4)cc32)[C@@H](CN2[C@H](C)COC[C@H]2C)CN1 (single isomer, unassigned) [Example 105, 2-[(2R,5R)-2-{[(3R,5R)-3,5-Dimethylmorpholin-4-yl]methyl}-5-methylpiperazin-1-yl]-1-{6-[(R or S)-(3-fluorophenyl)-(hydroxy)methyl]-3,3-dimethyl-1H,2H,3H-pyrrolo[3,2-b]pyridin-1-yl}ethan-1-one dihydrochloride]",,,< 1000 nM,60%,35 nM
"C[C@@H]1CN(CC(=O)N2CC(C)(C)c3ncc(Cc4ccc(F)cc4)cc32)[C@@H](CN2CCCC(F)(F)C2)CN1 [Example 3, 2-[(2R,5R)-2-[(3,3-Difluoropiperidin-1-yl)methyl]-5-methylpiperazin-1-yl]-1-{6-[(4-fluorophenyl)methyl]-3,3-dimethyl-1H,2H,3H-pyrrolo[3,2-b]pyridin-1-yl}ethan-1-one dihydrochloride]",,6.8 nM,< 1000 nM,37%,
"C[C@@H]1CN(CC(=O)N2CC(C)(C)c3ncc(C(O)c4cccc(F)c4F)cc32)[C@@H](CN2[C@H](C)COC[C@H]2C)CN1 (single isomer, unassigned) [Example 111, (R or S)-1-{6-[(2,3-Difluorophenyl)(hydroxy)meth-yl]-3,3-dimethyl-1H,2H,3H-pyrrolo[3,2-b]pyridin-1-yl}-2-[(2R,5R)-2-{[(3R,5R)-3,5-dimethylmorpholin-4-yl]methyl}-5-methylpiperazin-1-yl]ethan-1-one dihydrochloride]",,25 nM,< 1000 nM,45%,
"CC(=O)N1CCN(C[C@H]2CN[C@H](C)CN2CC(=O)N2CC(C)(C)c3cnc(Cc4ccc(F)cc4)cc32)[C@H](C)C1 [Example 56, 2-[(2R,5R)-2-{[(2R)-4-Acetyl-2-methylpiperazin-1-yl]methyl}-5-methylpiperazin-1-yl]-1-{6-[(4-fluorophenyl)methyl]-3,3-dimethyl-1H,2H,3H-pyrrolo[3,2-c]pyridin-1-yl}ethan-1-one, dihydrochloride]",,0.42 nM,< 1000 nM,70%,
"C[C@@H]1CN(CC(=O)N2CC(C)(C)c3ncc(Cc4ccc(F)cc4)cc32)[C@@H](CN2CCC[C@H]2CO)CN1 [Example 12, 1-{6-[(4-Fluorophenyl)methyl]-3,3-dimethyl-1H,2H,3H-pyrrolo[3,2-b]pyridin-1-yl}-2-[(2R,5R)-2-{[(2S)-2-(hydroxymethyl)pyrrolidin-1-yl]methyl}-5-methylpiperazin-1-yl]ethan-1-one dihydrochloride]",0.15 µM,1.6 nM,< 1000 nM,,
"C[C@@H]1CN(CC(=O)N2CC(C)(C)c3ncc(C(O)c4cc(F)ccc4F)cc32)[C@@H](CN2[C@H](C)COC[C@H]2C)CN1 (single isomer, unassigned) [Example 116, 1-{(R or S)-6-[(2,5-Difluorophenyl)(hydroxy)meth-yl]-3,3-dimethyl-1H,2H,3H-pyrrolo[3,2-b]pyridin-1-yl}-2-[(2R,5R)-2-{[(3R,5R)-3,5-dimethylmorpholin-4-yl]methyl}-5-methylpiperazin-1-yl]ethan-1-one dihydrochloride]",,,,47%,55 nM
"CC1COCCN1C[C@H]1CN[C@H](C)CN1CC(=O)N1CC(C)(C)c2ccc(Cc3ccc(F)cc3)cc21 (stereo partly drawn) [Example 45, 1-{6-[(4-Fluorophenyl)methyl]-3,3-dimethyl-2,3-dihydro-1H-indol-1-yl}-2-[(2R,5R)-5-methyl-2-{[(3R)-3-methylmorpholin-4-yl]methyl}piperazin-1-yl]ethan-1-one, dihydrochloride]",,3.5 nM,< 1000 nM,52%,
"CCC(F)(F)c1cnc2c(c1)N(C(=O)CN1C[C@@H](C)NC[C@@H]1CN1[C@H](C)COC[C@H]1C)CC2(C)C [Example 43, 1-[6-(1,1-Difluoropropyl)-3,3-dimethyl-1H,2H,3H-pyrrolo[3,2-b]pyridin-1-yl]-2-[(2R,5R)-2-{[(3R,5R)-3,5-dimethylmorpholin-4-yl]methyl}-5-methylpiperazin-1-yl]ethan-1-one, dihydrochloride]",,8.3 nM,< 1000 nM,62%,
"C[C@@H]1CN(CC(=O)N2CC(C)(C)c3ncc(C(O)c4ccccc4F)cc32)[C@@H](CN2[C@H](C)COC[C@H]2C)CN1 (single isomer, unassigned) [Example 107, 2-[(2R,5R)-2-{[(3R,5R)-3,5-Dimethylmorpholin-4-yl]methyl}-5-methylpiperazin-1-yl]-1-{6-[(R or S)-(2-fluorophenyl)-(hydroxy)methyl]-3,3-dimethyl-1H,2H,3H-pyrrolo[3,2-b]pyridin-1-yl}ethan-1-one dihydrochloride]",,,< 1000 nM,57%,7.1 nM
"COC[C@@H]1COCCN1C[C@H]1CN[C@H](C)CN1CC(=O)N1CC(C)(C)c2ncc(Cc3ccc(F)cc3)cc21 [Example 1, 1-{6-[(4-Fluorophenyl)methyl]-3,3-dimethyl-1H,2H,3H-pyrrolo[3,2-b]pyridin-1-yl}-2-[(2R,5R)-2-{[(3R)-3-(methoxymethyl)morpholin-4-yl]methyl}-5-methylpiperazin-1-yl]ethan-1-one dihydrochloride]",,2.9 nM,< 1000 nM,35%,
"C[C@@H]1CN(CC(=O)N2CC(C)(C)c3ncc(C(O)c4c(F)cccc4F)cc32)[C@@H](CN2[C@H](C)COC[C@H]2C)CN1 (single isomer, unassigned) [Example 117, 1-{(R or S)-6-[(2,6-Difluorophenyl)(hydroxy)meth-yl]-3,3-dimethyl-1H,2H,3H-pyrrolo[3,2-]pyridin-1-yl}-2-[(2R,5R)-2-{[(3R,5R)-3,5-dimethylmorpholin-4-yl]methyl}-5-methylpiperazin-1-yl]ethan-1-one dihydrochloride]",,,,41%,
"C[C@@H]1CN(CC(=O)N2CC(C)(C)c3ncc(Cc4ccc(F)cc4)cc32)[C@@H](CN2Cc3cccnc3C2)CN1 [Example 21, 1-{6-[(4-Fluorophenyl)methyl]-3,3-dimethyl-1H,2H,3H-pyrrolo[3,2-b]pyridin-1-yl}-2-[(2R,5R)-5-methyl-2-{5H,6H,7H-pyrrolo[3,4-b]pyridin-6-ylmethyl}piperazin-1-yl]ethan-1-one dihydrochloride]",,3.7 nM,< 1000 nM,,
"C[C@@H]1CN(CC(=O)N2CC(C)(C)c3ncc(Cc4ccc(F)cc4)cc32)[C@@H](CN2CCC[C@H]2C(F)(F)F)CN1 [Example 36, 1-{6-[(4-Fluorophenyl)methyl]-3,3-dimethyl-1H,2H,3H-pyrrolo[3,2-b]pyridin-1-yl}-2-[(2R,5R)-5-methyl-2-{[(2S)-2-(trifluoromethyl)pyrrolidin-1-yl]methyl}piperazin-1-yl]ethan-1-one]",,12 nM,< 1000 nM,,
"C[C@@H]1CN(CC(=O)N2CC(C)(C)c3ncc(Cc4ccc(F)cc4)cc32)[C@@H](CN2C3CCC2COC3)CN1 [Example 17, 1-{6-[(4-Fluorophenyl)methyl]-3,3-dimethyl-1H,2H,3H-pyrrolo[3,2-b]pyridin-1-yl}-2-[(2R,5R)-5-methyl-2-{3-oxa-8-azabicyclo[3.2.1]octan-8-ylmethyl}piperazin-1-yl]ethan-1-one dihydrochloride]",,3.8 nM,< 1000 nM,,
"C[C@@H]1CN(CC(=O)N2CC(C)(C)c3ncc(C(O)c4ccc(F)c(F)c4)cc32)[C@@H](CN2[C@H](C)COC[C@H]2C)CN1 (single isomer, unassigned) [Example 109, (R or S)-1-{6-[(3,4-Difluorophenyl)(hydroxy)meth-yl]-3,3-dimethyl-1H,2H,3H-pyrrolo[3,2-b]pyridin-1-yl}-2-[(2R,5R)-2-{[(3R,5R)-3,5-dimethylmorpholin-4-yl]methyl}-5-methylpiperazin-1-yl]ethan-1-one dihydrochloride]",,,< 1000 nM,,9.7 nM
"CC1CC(=O)CCN1C[C@H]1CN[C@H](C)CN1CC(=O)N1CC(C)(C)c2ncc(Cc3ccc(F)cc3)cc21 (stereo partly drawn) [Example 8, 1-{[(2R,5R)-1-(2-{6-[(4-Fluorophenyl)methyl]-3,3-dimethyl-1H,2H,3H-pyrrolo[3,2-b]pyridin-1-yl}-2-oxoethyl)-5-methylpiperazin-2-yl]methyl}-2-methylpiperidin-4-one dihydrochloride]",,3 nM,< 1000 nM,,
"C[C@@H]1CN(CC(=O)N2CC(C)(C)c3ncc(Cc4ccc(F)cc4)cc32)[C@@H](CN2CCC(F)(F)CC2)CN1 [Example 4, 2-[(2R,5R)-2-[(4,4-Difluoropiperidin-1-yl)methyl]-5-methylpiperazin-1-yl]-1-{6-[(4-fluorophenyl)methyl]-3,3-dimethyl-1H,2H,3H-pyrrolo[3,2-b]pyridin-1-yl}ethan-1-one dihydrochloride]",,6.8 nM,< 1000 nM,,
"C[C@@H]1CN(CC(=O)N2CC(C)(C)c3ncc(C(O)c4ccccc4)cc32)[C@@H](CN2[C@H](C)COC[C@H]2C)CN1 (single isomer, unassigned) [Example 114, 2-[(2R,5R)-2-{[(3R,5R)-3,5-Dimethymorpholin-4-yl]methyl}-5-methylpiperazin-1-yl]-1-{(R or S)-6-[hydroxy(phenyl)methyl]-3,3-dimethyl-1H,2H,3H-pyrrolo[3,2-b]pyridin-1-yl}ethan-1-one dihydrochloride]",,,,,24 nM
